# According to patent US5545719A, “Nerve growth peptides” (Neuromedica, Inc., priority 1994, dated 1996):
# Peptide text beside a SMILES is read from it.
# Experiments:
# Solubility observations = assay type: physicochemical; conditions: physiological pH values
# NB2a/dl cells = experiment: Neurite elongation assay (REE), NB2a/dl cells; assay type: cell-based, mouse; conditions: Conc. 1000 μM, 24 hrs in culture
# Protocol: (§1) Two cell lines were used. The mouse neuroblastoma cell line NB2a/dl was grown to confluency in P/100 plastic plates in the presence of Delbecco's medium with 10% fetal calf serum at 36.5° C. in a 5% CO2 atmosphere. Shea, T. B. et al., Dev. Brain Res., 21:307-314 (1985). An adrenergic mouse cell line based on PC12 pheochromocytoma cells was grown on collagen-coated culture plates using 85% RPMI 1640 and 10% heat-inactivated horse serum as the growth medium. Greene, L. A. et al., Proc. Natl. Acad. Sci. USA, 73:2424-2428 (1976). Cultures were grown in P-100 plates from an initial plating of 10^5 cells/ml under sterile conditions using 10 ml of incubation medium. Experimental cultures received a given concentration of protein fragment in 1 ml of serum-free medium. Control cultures received no fragment. […]
# (§2) In each of the twelve microscope fields, the length of nerve cell processes (minimum length: 0.5 times the cell body length) was also measured to determine the percentage of nerve elongation after 24 hr. The percentage of total cells that developed a longest process equal to its cell body length was calculated according to the formula in Table V, supra. […]
# NB2a/d1 cells = experiment: Neurite sprouting assay (RSE), NB2a/d1 cells; assay type: cell-based, mouse; conditions: 24 hrs in culture
# Protocol: Two cell lines were used. The mouse neuroblastoma cell line NB2a/dl was grown to confluency in P/100 plastic plates in the presence of Delbecco's medium with 10% fetal calf serum at 36.5° C. in a 5% CO2 atmosphere. Shea, T. B. et al., Dev. Brain Res., 21:307-314 (1985). An adrenergic mouse cell line based on PC12 pheochromocytoma cells was grown on collagen-coated culture plates using 85% RPMI 1640 and 10% heat-inactivated horse serum as the growth medium. Greene, L. A. et al., Proc. Natl. Acad. Sci. USA, 73:2424-2428 (1976). Cultures were grown in P-100 plates from an initial plating of 10^5 cells/ml under sterile conditions using 10 ml of incubation medium. Experimental cultures received a given concentration of protein fragment in 1 ml of serum-free medium. Control cultures received no fragment. Equal numbers of test and control plates were incubated at 35.5° C. in a 95%/5% air/CO2 humified atmosphere, and then examined for neurite growth patterns at 18, 24 and 48 hr after the plating in a phase microscope at a magnification of 100 or 200 ×, as specified.
# The test to determine the degree of sprouting was carried out blind to determine (1) the total number of cells present in a given field of observation and (2) the percent of these that have zero and one or two or more process. Twelve microscope fields, each containing 50-100 cells, were randomly selected in each plate and cells counted according to the categories described above. The data for 12 fields in each of two plates for each added protein fragment were combined to obtain an analysis of the percent sprouting (i.e. the % of cells that have one or more processes after 24 hr in culture) for each protein fragment. The ratio, % sprouting in experimental cultures/% sprouting in control cultures, is an index of the "relative sprouting effect" (RSE) of a protein fragment.
# PC12 cells [1] = experiment: Neurite sprouting assay (RSE), PC12 cells; assay type: cell-based, mouse; conditions: Conc. .07 μM, 24 hrs in culture
# Protocol: as §1
# The test to determine the degree of sprouting was carried out blind to determine (1) the total number of cells present in a given field of observation and (2) the percent of these that have zero and one or two or more process. Twelve microscope fields, each containing 50-100 cells, were randomly selected in each plate and cells counted according to the categories described above. […]
# PC12 cells [2] = experiment: Neurite elongation assay (REE), PC12 cells; assay type: cell-based, mouse
# Protocol: as §1, §2
compound,measurement,setting,value
"CC(C)C[C@H](NC(=O)[C@@H](NC(=O)[C@H](CCC(=O)O)NC(=O)[C@H](CCCCN)NC(=O)[C@@H](N)CCCCN)[C@@H](C)O)C(=O)N[C@@H](CCC(N)=O)C(=O)N[C@@H](Cc1ccccc1)C(=O)N[C@@H](CCCNC(=N)N)C(=O)O [compound 8933, Lys Lys Glu Thr Leu Gln Phe Arg] (H-KKETLQFR-OH)",solubility in saline,Solubility observations,highly soluble
"CCCC(=O)Nc1ncnc2c1ncn2[C@@H]1O[C@@H]2COP(=O)(O)O[C@H]2[C@H]1OC(=O)CCC [dibutyryl cyclic AMP, reference compound]",REE (neurite elongation),NB2a/dl cells,2.58
same,RSE (relative sprouting effect),NB2a/d1 cells; Conc. 1000 (μm),1.7
Nerve growth factor,RSE (relative sprouting effect),PC12 cells [1],2.9
same,REE (neurite elongation),"PC12 cells [2]; Conc. .03 μM, 24 hrs in culture",3.30
same,"effect on neurite elongation, result in words",PC12 cells [2]; Table IV,most significant effects
same,RSE (relative sprouting effect),NB2a/d1 cells; Conc. 0.03 (μm),1.76 ± .034
same,RSE (relative sprouting effect),NB2a/d1 cells; Conc. .07 (μm),1.76 ± .07
